Laboratory results from paper PMC8079033, “Design, synthesis, anticancer evaluation, and molecular modelling studies of novel tolmetin derivatives as potential VEGFR-2 inhibitors and apoptosis inducers” (Journal of Enzyme Inhibition and Medicinal Chemistry, 2021).

Tests used:
Test in all cases: NCI 60-cell line one-dose antiproliferative screen (SRB)
Type in all cases: cell-based
CAKI-1 = details: Homo sapiens, read-out: growth inhibition % (GI%)
How it was run: (§1)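 Read-out is SRB absorbance at 515 nm after 48 h treatment at 10 µM. Percent growth is calculated from time-zero, control and treated readings, then expressed as growth inhibition percentage, so both inhibition and cell kill register.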

MCF7 = details: Homo sapiens, read-out: growth inhibition % (GI%)
How it was run: as §1

CCRF-CEM = details: Homo sapiens, read-out: growth inhibition % (GI%)
How it was run: as §1

K-562 = details: Homo sapiens, K562, read-out: growth inhibition % (GI%)
How it was run: as §1

SF-539 = details: Homo sapiens, read-out: growth inhibition % (GI%)
How it was run: as §1

HCT-116 = details: Homo sapiens, read-out: growth inhibition % (GI%)
How it was run: as §1

LOX IMVI = details: Homo sapiens, read-out: growth inhibition % (GI%)
How it was run: as §1

MDA-MB-435 = details: Homo sapiens, read-out: growth inhibition % (GI%)
How it was run: as §1

NCI-H23 = details: Homo sapiens, read-out: growth inhibition % (GI%)
How it was run: as §1

IGROV1 = details: Homo sapiens, IGROV-1, read-out: growth inhibition % (GI%)
How it was run: as §1

OVCAR-5 = details: Homo sapiens, read-out: growth inhibition % (GI%)
How it was run: as §1

NCI/ADR-RES = details: Homo sapiens, read-out: growth inhibition % (GI%)
How it was run: as §1

MOLT-4 = details: Homo sapiens, read-out: growth inhibition % (GI%)
How it was run: as §1

SNB-75 = details: Homo sapiens, read-out: growth inhibition % (GI%)
How it was run: as §1

SK-MEL-5 = details: Homo sapiens, read-out: growth inhibition % (GI%)
How it was run: as §1

SN 12 C = details: Homo sapiens, SN12C, read-out: growth inhibition % (GI%)
How it was run: as §1

ACHN = details: Homo sapiens, read-out: growth inhibition % (GI%)
How it was run: as §1

PC-3 = details: Homo sapiens, read-out: growth inhibition % (GI%)
How it was run: as §1

SNB-19 = details: Homo sapiens, read-out: growth inhibition % (GI%)
How it was run: as §1

OVCAR-8 = details: Homo sapiens, read-out: growth inhibition % (GI%)
How it was run: as §1

NCI-H522 = details: Homo sapiens, read-out: growth inhibition % (GI%)
How it was run: as §1

M14 = details: Homo sapiens, read-out: growth inhibition % (GI%)
How it was run: as §1

HL-60 (TB) = details: Homo sapiens, read-out: growth inhibition % (GI%)
How it was run: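 Sulforhodamine B assay, 515 nm: percent growth relative to untreated control and time-zero cell number after a 48 h incubation with 10 µM compound at 37 °C, reported as GI%.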

HOP-62 = details: Homo sapiens, read-out: growth inhibition % (GI%)
How it was run: as §1

T-47D = details: Homo sapiens, T47D, read-out: growth inhibition % (GI%)
How it was run: as §1

MDA-MB-231/ATCC = details: Homo sapiens, read-out: growth inhibition % (GI%)
How it was run: as §1

RXF 393 = details: Homo sapiens, read-out: growth inhibition % (GI%)
How it was run: as §1

A549/ATCC = details: Homo sapiens, read-out: growth inhibition % (GI%)
How it was run: as §1

BT-5 = details: Homo sapiens, read-out: growth inhibition % (GI%)
How it was run: as §1

SF-268 = details: Homo sapiens, read-out: growth inhibition % (GI%)
How it was run: as §1

HCT-15 = details: Homo sapiens, read-out: growth inhibition % (GI%)
How it was run: as §1

MDA-MB-468 = details: Homo sapiens, read-out: growth inhibition % (GI%)
How it was run: as §1

786-0 = details: Homo sapiens, read-out: growth inhibition % (GI%)
How it was run: as §1

OVCAR-4 = details: Homo sapiens, read-out: growth inhibition % (GI%)
How it was run: as §1

Cc1ccc(C(=O)c2ccc(CC(=O)NN3C(=O)CCC3=O)n2C)cc1 [Compound 7a, N-(2,5-Dioxopyrrolidin-1-yl)-2–(1-methyl-5–(4-methylbenzoyl)-1H-pyrrol-2-yl) acetamide]
inhibition at 10 µM (CAKI-1): 28.3%
inhibition at 10 µM (MCF7): 14.4%
inhibition at 10 µM (CCRF-CEM): < 10%
inhibition at 10 µM (K-562): 11.2%
inhibition at 10 µM (SF-539): < 10%
inhibition at 10 µM (HCT-116): 11.3%
inhibition at 10 µM (LOX IMVI): 12.8%
inhibition at 10 µM (MDA-MB-435): < 10%
inhibition at 10 µM (NCI-H23): 24.8%
inhibition at 10 µM (IGROV1): 22.3%
inhibition at 10 µM (OVCAR-5): 10.6%
inhibition at 10 µM (NCI/ADR-RES): 12.8%
inhibition at 10 µM (MOLT-4): < 10%
inhibition at 10 µM (SNB-75): 40.9%
inhibition at 10 µM (SK-MEL-5): < 10%
inhibition at 10 µM (SN 12 C): 19.1%
inhibition at 10 µM (ACHN): 11.2%
inhibition at 10 µM (PC-3): 10%
inhibition at 10 µM (SNB-19): 20%
inhibition at 10 µM (OVCAR-8): 11%
inhibition at 10 µM (NCI-H522): 30.8%
inhibition at 10 µM (M14): < 10%
inhibition at 10 µM (HL-60 (TB)): < 10%
inhibition at 10 µM (HOP-62): 15.5%
inhibition at 10 µM (T-47D): 42.8%
inhibition at 10 µM (MDA-MB-231/ATCC): 13.7%
inhibition at 10 µM (RXF 393): < 10%
inhibition at 10 µM (A549/ATCC): 11.1%
inhibition at 10 µM (BT-5): < 10%
inhibition at 10 µM (SF-268): 11.9%
inhibition at 10 µM (HCT-15): < 10%
inhibition at 10 µM (MDA-MB-468): < 10%
inhibition at 10 µM (786-0): < 10%
inhibition at 10 µM (OVCAR-4): 31.9%

Cc1ccc(C(=O)c2ccc(CC(=O)NN=Cc3ccccc3O)n2C)cc1 [Compound 5a, N′-(2-Hydroxybenzylidene)-2–(1-methyl-5–(4-methylbenzoyl)-1H-pyrrol-2-yl)aceto hydrazide]
inhibition at 10 µM (CAKI-1): 35.5%
inhibition at 10 µM (MCF7): 18.5%
inhibition at 10 µM (CCRF-CEM): 45.9%
inhibition at 10 µM (K-562): 15.8%
inhibition at 10 µM (SF-539): 10.9%
inhibition at 10 µM (HCT-116): < 10%
inhibition at 10 µM (LOX IMVI): 42%
inhibition at 10 µM (MDA-MB-435): 16.8%
inhibition at 10 µM (NCI-H23): 17.1%
inhibition at 10 µM (IGROV1): 19.1%
inhibition at 10 µM (OVCAR-5): < 10%
inhibition at 10 µM (NCI/ADR-RES): 30.6%
inhibition at 10 µM (MOLT-4): 26%
inhibition at 10 µM (SNB-75): 40.4%
inhibition at 10 µM (SK-MEL-5): 12.6%
inhibition at 10 µM (SN 12 C): 10.2%
inhibition at 10 µM (ACHN): 46.8%
inhibition at 10 µM (PC-3): 13.2%
inhibition at 10 µM (SNB-19): 20.7%
inhibition at 10 µM (OVCAR-8): 21%
inhibition at 10 µM (NCI-H522): 24.9%
inhibition at 10 µM (M14): 17.1%
inhibition at 10 µM (HL-60 (TB)): 13%
inhibition at 10 µM (HOP-62): 24%
inhibition at 10 µM (T-47D): 24.4%
inhibition at 10 µM (MDA-MB-231/ATCC): 17.4%
inhibition at 10 µM (RXF 393): 10.4%
inhibition at 10 µM (A549/ATCC): 13.9%
inhibition at 10 µM (BT-5): 14.9%
inhibition at 10 µM (SF-268): 29.1%
inhibition at 10 µM (HCT-15): 56.5%
inhibition at 10 µM (MDA-MB-468): 18.9%
inhibition at 10 µM (786-0): < 10%
inhibition at 10 µM (OVCAR-4): 39.8%
